What was measured:
[1] = Liver microsomes metabolic stability, mouse; format: in vitro ADME
Protocol: Metabolic stability of test compounds was evaluated in pooled rat, mouse, dog, and cynomolgus monkey liver microsomes (BD Biosciences, San Jose, CA). The incubation conditions were as follows: 1 μM of the tested compound, 1 mM NADPH, 0.5 mg/mL microsomal protein in 0.1 M potassium phosphate buffer (pH 7.4). Following a 5-minute pre-incubation period, the enzymatic reactions were initiated by the addition of NADPH and test compound to the microsomes diluted in phosphate buffered saline. The mixtures were incubated at 37° C. for 0, 20, 40, and 60 min.
Compound concentrations were assessed by LC-MS/MS. Intrinsic clearance based upon microsomal stability data was determined using a substrate depletion method and scaled to hepatic clearance using the well-stirred model (Obach, R. S.; Baxter, J. G.; Liston, T. E.; Silber, B. M.; Jones, B. C.; MacIntyre, F.; Rance, D. J.; Wastall, P., “The Prediction of Human Pharmacokinetic Parameters from Preclinical and in vitro Metabolism Data”, J. Pharmacol. Exp. Ther., (1997), 283 (1), 46-58).

[2] = In vitro plasma protein binding, mouse; format: in vitro ADME; settings: pooled mouse plasma, read-out: PPB % (H/R/M) (converted)
Protocol: In vitro plasma protein binding (n=2) was determined in pooled mouse, rat, and human plasma (Bioreclamation, Inc., Hicksville, NY) by equilibrium dialysis using a Rapid Equilibrium Dialysis (RED) device (Pierce Biotechnology/Thermo Fisher Scientific; Rockford, IL) with a molecular weight cut-off of 8000 Daltons. Test compounds were added to plasma. Plasma samples were equilibriated with phosphate-buffered saline at 37° C. for 4 hours. Compound concentrations in post-dialysis plasma and buffer samples were measured by LC-MS/MS. The percent unbound fraction in plasma for each compound was calculated by dividing the compound concentration in the post-dialysis buffer by that measured in the post-dialysis plasma and multiplying by 100%.

[3] = target: Human Cbl-b (residues 40-426) (Homo sapiens (Human), UniProt Q13191); assay: Cbl-b SPR assay (incl. multi-point chaser variation); format: binding
Protocol: Affinity of binding to Cbl-b and c-Cbl for compounds described herein can be assessed by surface plasmon resonance (SPR) according to the following protocol. All experiments were recorded on a Biacore™ 8K or Biacore™ 8K+ (Cytiva) with both surface preparation and experimental measurements performed at 20° C. in an assay buffer consisting of 50 mM HEPES, pH 7.5, 0.15 M NaCl, 0.001% (v/v) Tween® 20, 0.2 mM tris(2-carboxyethyl)phosphine, 0.025% (w/v) carboxymethylated dextran (average MW 10 kDa), 0.2% (w/v) PEG 3350, and 2% DMSO. […]
For SPR measurements, 6 concentrations with 2 fold serial dilution were measured with blanks flanking each series for double referencing. […] SPR sensorgrams were recorded in multi-cycle kinetics format, with a contact time of 60 seconds and a flow rate of 40 μl/min, the dissociation time was varied between 120-1200 seconds aiming for 4-5 half-lives of the measured interaction. […]
In the case of potent compounds, the protein-compound half-life cannot be accurately measured using routine fitting of the single cycle titration data. The kd is measured independently by determining the percentage unoccupied compound binding site over time by measuring the binding of a chaser compound measured by SPR.
Chaser binding was measured by a multicycle kinetics SPR experiment using a contact time of 20 seconds, a flow rate of […], and a dissociation time of 120 seconds. […]

PBMCs = assay: PBMC IL-2 assay; format: cell-based; settings: read-out: PBMC IL-2 Cell EC50
Protocol: Immune response to compounds described herein can be assessed via a PBMC IL-2 assay, conducted according to the following protocol. PBMCs (#A19K379053, A19K261022; TPCS) are thawed into complete medium: 1640 medium (#2085568; Gibco), 10% FBS (#SH30084.03; HyClone), and 1× pen/strep. Compounds are 3-fold serially diluted in DMSO in a 384-well polypropylene plate (#P-05525-BC; Labcyte) using the Tecan EVO to generate a source plate with 10 concentrations of each compound, top concentration=4 mM. Compounds are dispensed into a 96-well plate (#6005680; PerkinElmer) using a Labcyte Echo; final dispensed volume of each control and compound is 1000 nL (final DMSO=0.5%). After recovery overnight, cells are seeded at 2×10^5 cells/well into 96-well plates containing compounds and incubated at 37° C., 5% CO2 for 30 min. Cells are stimulated by adding 20 μL/well 1/10 TransAct (#130-111-160; Miltenyi) diluted in complete medium, placed on a shaker for 2 min at 600 rpm, and incubated for 24 h at 37° C., 5% CO2. Plates are centrifuged at 1200 rpm for 5 min and 120 μL cell supernatant collected. Supernatants are diluted 10-fold and IL-2 concentrations of each sample are determined using the IL-2 MSD kit (#K151AHB-4; MSD) per the manufacturer's instructions.

Human Cbl-b (residues 40-426), sequence (Q13191 40-426): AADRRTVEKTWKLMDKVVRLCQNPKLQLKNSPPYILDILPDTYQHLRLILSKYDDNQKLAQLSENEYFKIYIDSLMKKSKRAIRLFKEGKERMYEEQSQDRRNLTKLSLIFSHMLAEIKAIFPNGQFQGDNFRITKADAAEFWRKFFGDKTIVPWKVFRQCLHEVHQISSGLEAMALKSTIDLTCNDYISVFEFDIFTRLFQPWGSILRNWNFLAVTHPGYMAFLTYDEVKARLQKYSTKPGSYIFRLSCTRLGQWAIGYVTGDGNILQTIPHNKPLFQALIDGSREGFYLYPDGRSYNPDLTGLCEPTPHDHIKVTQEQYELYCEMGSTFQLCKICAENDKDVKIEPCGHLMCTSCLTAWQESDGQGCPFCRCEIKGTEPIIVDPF

- LM (H/R/M/D/C) [1]: 60
- fraction unbound at 4 h [2]: 0.06
- Kd ([3]; read-out: SPR Kd kin): 5.6 nM
- SPR Kd kin (select.) ([3]; selectivity): 1.3 x
SMILES: CC(C)[C@H]1CN(C)CCN1Cc1cc(C(=O)Nc2cccc(C3(Cc4nncn4C)CC(F)(F)C3)c2)nc(C2CC2)c1 [Compound 224, (S)-6-cyclopropyl-N-(3-(3,3-difluoro-1-((4-methyl-4H-1,2,4-triazol-3-yl)methyl)cyclobutyl)phenyl)-4-((2-isopropyl-4-methylpiperazin-1-yl)methyl)picolinamide]
- EC50 (PBMCs): 32 nM

Source: patent US20240300927A1, “AMIDES AS CBL-B INHIBITORS” (Genentech, Inc., priority 2021, published 2024)
